# Legend:
# late watergrass = assay: Test Example 1: herbicidal activity, application before weed generation under submerged conditions (Table 16, symbol A); assay type: in vivo, late watergrass (Echinochloa oryzicola); details: 320 g/ha applied herbicide
# In short: (§1)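 Alluvial soil was flooded to 4 cm depth, weed seeds were sown mixed and 2.5-leaf rice seedlings were transplanted. On sowing day, the compound's emulsion, diluted in water to a set dose, was applied to the water surface. Plants grew at 25–30 °C and were scored 0–5 after three weeks.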
# Japanese bulrush = assay: Test Example 1: herbicidal activity, application before weed generation under submerged conditions (Table 16, symbol B); assay type: in vivo, Japanese bulrush (Schoenoplectus juncoides); details: 320 g/ha applied herbicide
# In short: as §1
# barnyard grass [1] = assay: Test Example 3: herbicidal effect by foliage application, Wagner pot (Table 18, symbol H); assay type: in vivo, barnyard grass (Echinochloa crus-galli); details: 320 g/ha
# In short: (§2)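 Plants were sown in alluvial soil held under 0.1–0.5 cm standing water and grown 14 days in a greenhouse at 25–30 °C. An emulsifiable formulation, water-diluted to the set dose, was then sprayed onto the foliage, and effects were scored three weeks later using previously defined criteria.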
# Chinese sprangletop = assay: Test Example 3: herbicidal effect by foliage application, Wagner pot (Table 18, symbol D); assay type: in vivo, chinese sprangletop (Leptochloa chinensis); details: 320 g/ha
# In short: as §2
# rice flat sedge = assay: Test Example 3: herbicidal effect by foliage application, Wagner pot (Table 18, symbol E); assay type: in vivo, rice flat sedge (Cyperus iria); details: 320 g/ha
# In short: as §2
# southern crabgrass = assay: Test Example 5: herbicidal effect by foliage application, plastic box (Table 20, symbol F); assay type: in vivo, southern crabgrass (Digitaria ciliaris); details: foliage application, 320 g/ha, three weeks after application
# In short: (§3)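 Plants sown in sterilized diluvial soil and grown 14 days in a greenhouse at 25° C to 30° C, then sprayed on the foliage with the compound's emulsion diluted in water to a predetermined herbicide amount. Injury to weeds and crops scored three weeks after application on a visual rating scale.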
# green foxtail = assay: Test Example 5: herbicidal effect by foliage application, plastic box (Table 20, symbol G); assay type: in vivo, green foxtail (Setaria viridis); details: foliage application, 320 g/ha, three weeks after application
# In short: as §3
# barnyard grass [2] = assay: Test Example 5: herbicidal effect by foliage application, plastic box (Table 20, symbol H); assay type: in vivo, barnyard grass (Echinochloa crus-galli); details: foliage application, 320 g/ha, three weeks after application
# In short: as §3
# wild oat = assay: Test Example 5: herbicidal effect by foliage application, plastic box (Table 20, symbol I); assay type: in vivo, wild oat (Avena fatua); details: foliage application, 320 g/ha, three weeks after application
# In short: as §3
# blackgrass = assay: Test Example 5: herbicidal effect by foliage application, plastic box (Table 20, symbol J); assay type: in vivo, blackgrass (Alopecurus myosuroides); details: foliage application, 320 g/ha, three weeks after application
# In short: as §3
# Italian ryegrass = assay: Test Example 5: herbicidal effect by foliage application, plastic box (Table 20, symbol K); assay type: in vivo, Italian ryegrass (Lolium multiflorum); details: foliage application, 320 g/ha, three weeks after application
# In short: as §3
# windgrass = assay: Test Example 5: herbicidal effect by foliage application, plastic box (Table 20, symbol L); assay type: in vivo, windgrass (Apera spica-venti); details: foliage application, 320 g/ha, three weeks after application
# In short: as §3
# velvetleaf = assay: Test Example 5: herbicidal effect by foliage application, plastic box (Table 20, symbol M); assay type: in vivo, velvetleaf (Abutilon theophrasti); details: foliage application, 320 g/ha, three weeks after application
# In short: as §3
# redroot pigweed = assay: Test Example 5: herbicidal effect by foliage application, plastic box (Table 20, symbol N); assay type: in vivo, redroot pigweed (Amaranthus retroflexus); details: foliage application, 320 g/ha, three weeks after application
# In short: as §3
# lambsquarters = assay: Test Example 5: herbicidal effect by foliage application, plastic box (Table 20, symbol O); assay type: in vivo, lambsquarters (Chenopodium album); details: foliage application, 320 g/ha, three weeks after application
# In short: as §3
# chickweed = assay: Test Example 5: herbicidal effect by foliage application, plastic box (Table 20, symbol P); assay type: in vivo, common chickweed (Stellaria media); details: foliage application, 320 g/ha, three weeks after application
# In short: as §3
# false cleavers = assay: Test Example 5: herbicidal effect by foliage application, plastic box (Table 20, symbol Q); assay type: in vivo, false cleavers (Galium spurium); details: foliage application, 320 g/ha, three weeks after application
# In short: as §3
# persian speedwell = assay: Test Example 5: herbicidal effect by foliage application, plastic box (Table 20, symbol R); assay type: in vivo, Persian speedwell (Veronica persica); details: foliage application, 320 g/ha, three weeks after application
# In short: as §3
compound,measurement,setting,value
CCCCOc1ccccc1-c1sc2ccccc2c1-c1c(O)c(C)nn(C)c1=O [1-022],Herbicidal effect on A: late watergrass (grade 0-5),late watergrass,2 (Herbicidal rate of 20% or more and less than 40%)
same,Herbicidal effect on B: Japanese bulrush (grade 0-5),Japanese bulrush,3 (Herbicidal rate of 40% or more and less than 70%)
same,"herbicidal effect on H (barnyard grass), rating 0-5",barnyard grass [1],3 (Herbicidal rate of 40% or more and less than 70%)
same,"herbicidal effect on D (Chinese sprangletop), rating 0-5",Chinese sprangletop,0 (Herbicidal rate of 5% or less (almost no effect))
same,"herbicidal effect on E (rice flat sedge), rating 0-5",rice flat sedge,4 (Herbicidal rate of 70% or more and less than 90%)
same,"herbicidal effect grade, F: southern crabgrass",southern crabgrass,0 (Herbicidal rate of 5% or less (almost no effect))
same,"herbicidal effect grade, G: green foxtail",green foxtail,0 (Herbicidal rate of 5% or less (almost no effect))
same,"herbicidal effect grade, H: barnyard grass",barnyard grass [2],3 (Herbicidal rate of 40% or more and less than 70%)
same,"herbicidal effect grade, I: wild oat",wild oat,0 (Herbicidal rate of 5% or less (almost no effect))
same,"herbicidal effect grade, J: blackgrass",blackgrass,0 (Herbicidal rate of 5% or less (almost no effect))
same,"herbicidal effect grade, K: Italian ryegrass",Italian ryegrass,0 (Herbicidal rate of 5% or less (almost no effect))
same,"herbicidal effect grade, L: windgrass",windgrass,0 (Herbicidal rate of 5% or less (almost no effect))
same,"herbicidal effect grade, M: velvetleaf",velvetleaf,0 (Herbicidal rate of 5% or less (almost no effect))
same,"herbicidal effect grade, N: redroot pigweed",redroot pigweed,3 (Herbicidal rate of 40% or more and less than 70%)
same,"herbicidal effect grade, O: lambsquarters",lambsquarters,0 (Herbicidal rate of 5% or less (almost no effect))
same,"herbicidal effect grade, P: chickweed",chickweed,5 (Herbicidal rate of 90% or more (almost completely withered))
same,"herbicidal effect grade, Q: false cleavers",false cleavers,4 (Herbicidal rate of 70% or more and less than 90%)
same,"herbicidal effect grade, R: persian speedwell",persian speedwell,5 (Herbicidal rate of 90% or more (almost completely withered))
